Measured values taken from the supplement of paper PMC8882468.
± gives the standard deviation of the averaged measurements.

Columns and labels:
Test in all cases: CTG-3D luminescence at 96 h relative to day-0 seeding control (ratio to day 0); higher = more growth / less cytotoxicity; PDxO 3D drug screen, 96 h, CTG-3D normalised to day-0 seeding control.
HCI-017.E2 = tested on: HCI-017.E2 (organoid from an ER-positive breast cancer xenograft)
HCI-012 = tested on: HCI-012 (organoid from a breast cancer xenograft)
HCI-015 = tested on: HCI-015 (organoid from a triple-negative breast cancer xenograft)
HCI-016 = tested on: HCI-016 (organoid from a triple-negative breast cancer xenograft)
HCI-005.E2 = tested on: HCI-005.E2 (organoid from a breast cancer xenograft with a HER2-positive history)
MDA-MB-231 = tested on: MDA-MB-231

O=C(c1ccc(F)c(F)c1Nc1ccc(I)cc1F)N1CC(O)([C@@H]2CCCCN2)C1 [cobimetinib]
CTG-3D luminescence at 96 h
Conditions	12.5 pM	0.00025 µM	0.005 µM	0.1 µM	1 µM	10 µM	100 µM	625 fM
HCI-005.E2	1.55 ± 0.54	1.65 ± 0.22	1.32 ± 0.1	1.05 ± 0.23	0.579 ± 0.038	0.594 ± 0.092	0.00269 ± 0.0047	1.63 ± 0.37
HCI-017.E2	1.77 ± 0.36	2.11 ± 0.29	2.18 ± 0.27	1.89 ± 0.2	1.889 ± 0.0077	1.57 ± 0.049	0.00898 ± 0.0081	2.01 ± 0.47
MDA-MB-231	4.37 ± 1.3	4.46 ± 1.5	4.46 ± 1.5	3.88 ± 1.1	2.4 ± 1.1	1.24 ± 0.67	-0.00771 ± 0.0062	4.43 ± 1.4

CTG-3D luminescence at 96 h
Conditions	12.5 pM	0.00025 µM	0.005 µM	0.1 µM	1 µM	10 µM	100 µM	625 fM
HCI-012, days in culture: 143	1.73	1.86	1.88	1.87	1.57	0.758	-0.00459	1.71
HCI-012, days in culture: 162	2.44	2.1	1.91	2.85	1.59	1.45	0.00171	2.91
HCI-012, days in culture: 201	2.69	1.53	1.69	1.91	2.24	1.02	-0.00449	1.35
HCI-015, days in culture: 172	2.36	1.69	2.13	1.86	1.47	0.989	0.00672	2.48
HCI-015, days in culture: 191	1.86	1.15	1.57	1.17	1.01	0.894	0.0092	1.58
HCI-015, days in culture: 218	1.8	1.31	2.02	1.47	1.39	1.12	0.00858	1.64
HCI-016, days in culture: 153	3.32	1.63	2.26	1.1	1.56	1.38	0.0036	2.59
HCI-016, days in culture: 172	2.03	1.92	1.82	0.984	1.38	0.776	0.0013	1.63
HCI-016, days in culture: 190	1.55	1.08	1.45	1	0.91	0.962	0.00248	1.37
HCI-016, days in culture: 199	1.61	1.48	1.59	1.4	1.28	1.19	0.00262	1.78
HCI-017.E2, days in culture: 85	3.27	2.34	2.34	2.15	1.65	2.15	0.017	2.45

C[C@H](NC(=O)CCC(F)(F)F)C(=O)N[C@@H]1C(=O)N(CCO)c2ncccc2-c2ccccc21 [crenigacestat]
CTG-3D luminescence at 96 h
Conditions	12.5 pM	0.00025 µM	0.005 µM	0.1 µM	1 µM	10 µM	100 µM	625 fM
HCI-005.E2	1.59 ± 0.68	1.76 ± 0.42	1.84 ± 0.24	1.57 ± 0.45	1.33 ± 0.45	1.42 ± 0.29	1.19 ± 0.29	1.47 ± 0.27
HCI-017.E2	1.98 ± 0.17	2.37 ± 0.17	2.22 ± 0.31	1.95 ± 0.11	1.876 ± 0.007	1.78 ± 0.18	1.78 ± 0.23	2.32 ± 0.025
MDA-MB-231	4.47 ± 1.4	4.32 ± 1.4	4.4 ± 1.4	4.27 ± 1.2	4.51 ± 1.4	4.53 ± 1.3	4.69 ± 1.3	4.5 ± 1.4

CTG-3D luminescence at 96 h
Conditions	12.5 pM	0.00025 µM	0.005 µM	0.1 µM	1 µM	10 µM	100 µM	625 fM
HCI-012, days in culture: 143	1.9	1.85	1.63	2.49	2.07	2.78	2.65	1.78
HCI-012, days in culture: 162	2.11	2.3	1.74	2.93	1.87	2.96	2.74	2.57
HCI-012, days in culture: 201	2.55	1.94	1.82	1.75	2.3	1.67	2.55	1.72
HCI-015, days in culture: 172	2.18	1.26	1.37	0.655	0.872	1.02	1.03	2.13
HCI-015, days in culture: 191	1.82	1.27	0.914	0.48	0.414	0.657	0.695	1.32
HCI-015, days in culture: 218	1.66	1.29	0.952	0.72	0.7	0.533	0.827	1.61
HCI-016, days in culture: 153	2.83	1.83	2.67	1.66	2.21	2.33	2.19	2.92
HCI-016, days in culture: 172	2.16	1.87	1.71	1.66	1.58	1.14	1.76	1.73
HCI-016, days in culture: 190	1.45	1.02	1.29	0.549	0.838	1.52	1.74	0.976
HCI-016, days in culture: 199	1.48	1.3	1.49	1.38	1.78	1.57	1.73	1.76
HCI-017.E2, days in culture: 85	2.43	2.96	2.49	2.05	1.89	1.57	2.02	3.08
